{"source": "patent US20070117743A1", "about": "“New antitumoral compounds” (priority 2003, published 2007)", "format_in_all_cases": "cell-based, human", "details_in_all_cases": "48 hours exposure, SRB", "key": {"[1]": {"system": "A-549", "assay": "SRB colorimetric assay of cell growth and viability, A-549"}, "[2]": {"system": "IGROV-1", "assay": "SRB colorimetric assay of cell growth and viability, IGROV-1"}, "[3]": {"system": "LoVo", "assay": "SRB colorimetric assay of cell growth and viability, LoVo"}, "[4]": {"system": "HT-29", "assay": "SRB colorimetric assay of cell growth and viability, HT-29"}, "[5]": {"system": "HeLa-APL", "assay": "SRB colorimetric assay of cell growth and viability, HeLa-APL"}, "[6]": {"system": "K-562", "assay": "SRB colorimetric assay of cell growth and viability, K-562"}, "[7]": {"system": "DU-145", "assay": "SRB colorimetric assay of cell growth and viability, DU-145"}, "[8]": {"system": "SK-MEL-28", "assay": "SRB colorimetric assay of cell growth and viability, SK-MEL-28"}, "[9]": {"system": "LoVo-Dox", "assay": "SRB colorimetric assay of cell growth and viability, LoVo-Dox", "how_it_was_run": "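Optical density at 490 nm of solubilized SRB, from triplicate wells, yields GI, TGI and LC values. Before staining, cells are fixed for 60 minutes at 4° C in cold TCA after a 48-hour exposure.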"}, "[10]": {"system": "PANC-1", "assay": "SRB colorimetric assay of cell growth and viability, PANC-1"}, "[11]": {"system": "IGROV-ET", "assay": "SRB colorimetric assay of cell growth and viability, IGROV-ET"}, "[12]": {"system": "SK-BR-3", "assay": "SRB colorimetric assay of cell growth and viability, SK-BR-3", "excerpt": "The finality of this assay is to interrupt the growth of a “in vitro” tumor cell culture by means a continued exhibition of the cells to the sample to be testing.\nThis form of the assay employs 96 well cell culture microplates of 9 mm diameter (Faircloth, 1988; Mosmann, 1983). Most of the cell lines are obtained from American Type Culture Collection (ATCC) derived from different human cancer types.\nCells are maintained in RPMI 1640 10% FBS, supplemented with 0.1 g/l penicillin and 0.1 g/l streptomycin sulfate and then incubated at 37° C., 5% CO2 and 98% humidity. For the experiments, cells were harvested from subconfluent cultures using trypsin and resuspended in fresh medium before plating.\nCells are seeded in 96 well microtiter plates, at 5×10^3 cells per well in aliquots of 195 μL medium, and they are allowed to attach to the plate surface by growing in drug free medium for 18 hours. Afterward, samples are added in aliquots of 5 μL in a ranging from 10 to 10^−8 μg/mL, dissolved in DMSO:EtOH:PBS (0.5:0.5:99). After 48 hours exposure, the antitumor effect are measured by the SRB methodology: cells are fixed by adding 50 μL of cold 50% (wt/vol) trichloroacetic acid (TCA) and incubating for 60 minutes at 4° C. Plates are washed with deionized water and dried. One hundred μL of SRB solution (0.4% wt/vol in 1% acetic acid) is added to each microtiter well and incubated for 10 minutes at room temperature. Unbound SRB is removed by washing with 1% acetic acid. Plates are air dried and bound stain is solubilized with Tris buffer. Optical densities are read on a automated spectrophotometric plate reader at a single wavelength of 490 nm.\nThe values for mean+/− SD of data from triplicate wells are calculated. Some parameters for cellular responses can be calculated: GI=growth inhibition, TGI=total growth inhibition (cytostatic effect) and LC=cell killing (cytotoxic effect)."}, "[13]": {"system": "HeLa", "assay": "SRB colorimetric assay of cell growth and viability, HeLa"}}, "note": "Where a SMILES comes first, the peptide text is derived from it. Bridges are numbered along the chain shown (N, C = ends). [ ]: non-standard residue; d: D form. The star is where a group is joined. ξ: configuration not given here. Pro(3ξ,4ξ-(CH2)4) = O=C(O)[C@H]1NCC2CCCCC21; Hexanoyl(4S-Me) = CC[C@H](C)CCC(=O)*; d(aIle) = CC[C@H](C)[C@@H](N)C(=O)O; d(aThr) = C[C@@H](O)[C@@H](N)C(=O)O; Orn = NCCC[C@H](N)C(=O)O; Dhb = C/C=C(\\N)C(=O)O", "data": [{"smiles": "C/C=C1\\NC(=O)[C@@H]2C3CCCCC3CN2C(=O)[C@@H](C(C)C)NC(=O)[C@@H]([C@@H](C)CC)NC(=O)[C@H](NC(=O)[C@H](NC(=O)[C@H](CCCN)NC(=O)[C@H]2CCCN2C(=O)[C@H](NC(=O)[C@@H](NC(=O)[C@@H](NC(=O)[C@H](NC(=O)CC[C@@H](C)CC)C(C)C)[C@@H](C)O)C(C)C)C(C)C)[C@@H](C)CC)[C@@H](C)OC(=O)[C@H](C(C)C)NC1=O", "note": "(stereo partly drawn) [Compound 79, [Oic^3, (4S)-MeHex^14]-KF] ({Hexanoyl(4S-Me)}-[dV]TV[dV][dP][Orn][d(aIle)][d(aThr)][d(aIle)][dV][Pro(3ξ,4ξ-(CH2)4)][Dhb]V; ester 8-C)", "values": [{"measurement": "TGI A-549", "setting": "[1]", "value": "6.75E−06", "unit": "Molar"}, {"measurement": "GI50", "setting": "[1]; read-out: GI50 A-549", "value": 4.42, "unit": "µM"}, {"measurement": "CC50", "setting": "[1]; read-out: LC50 A-549", "value": "≥ 6.75", "unit": "µM"}, {"measurement": "GI50", "setting": "[2]", "value": 1910, "unit": "nM"}, {"measurement": "LC50 (concentration causing 50% net cell killing)", "setting": "[2]", "value": 5.55, "unit": "µM"}, {"measurement": "TGI IGROV", "setting": "[2]", "value": "3.25E−06", "unit": "Molar"}, {"measurement": "GI50", "setting": "[3]", "value": 591, "unit": "nM"}, {"measurement": "TGI LOVO", "setting": "[3]", "value": "1.40E−06", "unit": "Molar"}, {"measurement": "CC50", "setting": "[3]; read-out: LC50 LOVO", "value": 3.02, "unit": "µM"}, {"measurement": "TGI HT-29", "setting": "[4]", "value": "2.43E−06", "unit": "Molar"}, {"measurement": "GI50", "setting": "[4]; read-out: GI50 HT-29", "value": 1440, "unit": "nM"}, {"measurement": "CC50", "setting": "[4]; read-out: LC50 HT-29", "value": 4.09, "unit": "µM"}, {"measurement": "GI50", "setting": "[5]", "value": 4.8, "unit": "µM"}, {"measurement": "TGI HELA-APL", "setting": "[5]", "value": "6.75E−06", "unit": "Molar"}, {"measurement": "CC50", "setting": "[5]; read-out: LC50 HELA-APL", "value": "≥ 6.75", "unit": "µM"}, {"measurement": "GI50", "setting": "[6]", "value": 1710, "unit": "nM"}, {"measurement": "TGI K-562", "setting": "[6]", "value": "4.02E−06", "unit": "Molar"}, {"measurement": "CC50", "setting": "[6]; read-out: LC50 K-562", "value": "≥ 6.75", "unit": "µM"}, {"measurement": "GI50", "setting": "[7]", "value": 6.01, "unit": "µM"}, {"measurement": "LC50 (concentration causing 50% net cell kill)", "setting": "[7]", "value": "≥ 6.75", "unit": "µM"}, {"measurement": "TGI DU-145", "setting": "[7]", "value": "6.75E−06", "unit": "Molar"}, {"measurement": "GI50", "setting": "[8]", "value": 2310, "unit": "nM"}, {"measurement": "TGI MEL-28", "setting": "[8]", "value": "6.75E−06", "unit": "Molar"}, {"measurement": "CC50", "setting": "[8]; read-out: LC50 MEL-28", "value": "≥ 6.75", "unit": "µM"}, {"measurement": "GI50", "setting": "[9]", "value": 387, "unit": "nM"}, {"measurement": "TGI LOVO-DOX", "setting": "[9]", "value": "1.15E−06", "unit": "Molar"}, {"measurement": "CC50", "setting": "[9]; read-out: LC50 LOVO-DOX", "value": 2560, "unit": "nM"}, {"measurement": "GI50", "setting": "[10]", "value": "≥ 6.75", "unit": "µM"}, {"measurement": "TGI PANC-1", "setting": "[10]", "value": "6.75E−06", "unit": "Molar"}, {"measurement": "CC50", "setting": "[10]; read-out: LC50 PANC-1", "value": "≥ 6.75", "unit": "µM"}, {"measurement": "GI50", "setting": "[11]", "value": 1980, "unit": "nM"}, {"measurement": "TGI IGROV-ET", "setting": "[11]", "value": "4.28E−06", "unit": "Molar"}, {"measurement": "CC50", "setting": "[11]; read-out: LC50 IGROV-ET", "value": "≥ 6.75", "unit": "µM"}, {"measurement": "GI50", "setting": "[12]", "value": 796, "unit": "nM"}, {"measurement": "LC50", "setting": "[12]", "value": 3.43, "unit": "µM"}, {"measurement": "TGI SK-BR-3", "setting": "[12]", "value": "1.65E−06", "unit": "Molar"}, {"measurement": "GI50", "setting": "[13]", "value": 2690, "unit": "nM"}, {"measurement": "TGI HELA", "setting": "[13]", "value": "6.75E−06", "unit": "Molar"}, {"measurement": "CC50", "setting": "[13]; read-out: LC50 HELA", "value": "≥ 6.75", "unit": "µM"}]}]}
